Test results taken from patent US10106515B2, “1-(cyclopent-2-en-1-yl)-3-(2-hydroxy-3-(arylsulfonyl)phenyl)urea derivatives as CXCR2 inhibitors” (GLAXOSMITHKLINE INTELLECTUAL PROPERTY DEVELOPMENT LIMITED, priority 2014, dated 2018).

Test system: Rat oligodendrocyte precursor cells (OPCs)
Assay: OPC differentiation assay
Type: cell-based
Conditions: percentage of MBP+ cells
Method: In the oligodendrocyte precursor cell (OPC) in vitro differentiation assay, purified or enriched OPCs are cultured and differentiated into immature oligodendrocytes, mature oligodendrocytes, and myelinating oligodendrocytes (Watkins et al. (2008) Neuron 60:555-569). Specific markers have been identified for each specific stage of OPC differentiation. Myelin basic proteins (MBP), a specific marker for matured and myelinating oligodendrocytes, is used as an indicator for OPC differentiation and maturation (Franklin et al. (2008) J Neurosci, 255 Suppl 1:19-25). The OPC differentiation assay provides a tool to screen the compounds with the potency of promoting OPC differentiation, which is an initial step for downstream remyelination repair in vivo after demyelination occurs in mutiple scelerosis (MS) patients.
Rat oligodendrocyte precursor cells (OPCs) were obtained from P1 pups and were cultured in DMEM/20S medium (DMEM with 20% FBS, 4 mM L-Glutamine, 1 mM sodium pyruvate and penicillin) (Zhang et al. (2007) Nature Protocol 2 (5):1044). […] The plate was read on Cellomics (SN: 04080019LH; P/N no 1-0117) using target activation protocol to calculate the percentage of MBP+ cells to reflect the differentiation of OPCs.

Structure (SMILES): CC1=CCC[C@H]1NC(=O)Nc1ccc(Cl)c(S(=O)(=O)[C@@]2(C)CCOC2)c1O [Compound 195, 1-(4-chloro-2-hydroxy-3-(((S)-3-methyltetrahydrofuran-3-yl)sulfonyl)phenyl)-3-((R)-2-methylcyclopent-2-en-1-yl)urea]
- IC50 (Oligodendrocyte precursor cell, read-out: pIC50 (OPC differentiation assay) (converted)): 6.31 µM
- OPC differentiation: promote OPC differentiation
